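Following 48 hours of exposure in 96-well plates, responses at five concentrations were used to interpolate endpoints linearly. The concentration for 50% growth inhibition is given as GI50.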 Activity calls are given as the source filed them. Rule as the data show it: active = GI50 up to about 1.1 µM and inactive = higher.

Among the test systems are SF-539; UACC-62; OVCAR-3; SK-MEL-5; OVCAR-5; HL-60; NCI-H522; KM12; Malme-3M; DU-145; K562; MDA-MB-231; HOP-92; RPMI-8226; HCT-15; SNB-19; M14; NCI-H23; HCC 2998.
Holding throughout (assay): NCI anticancer screen, dose series, 48 h

On to `O=C(O)CN1CCNCCN(CC(=O)O)CCN(CC(=O)O)CCNCC1`, for which the GI50 was 63.7 µM (inactive) with SF-539; 84.7 µM (inactive) in the test on UACC-62; 76 µM (inactive) with OVCAR-3; > 100 µM (inactive) in the test on SK-MEL-5; 97.7 µM (inactive) with OVCAR-5; 25.9 µM (inactive) in the test on HL-60. Also, the GI50 with NCI-H522 was 18.2 µM (inactive); in the test with KM12, > 100 µM (inactive); in the test with Malme-3M it was > 100 µM (inactive); with DU-145, > 100 µM (inactive); in the test with K562 it was 85.3 µM (inactive); in the test on MDA-MB-231, > 100 µM (inactive). For the same compound, the GI50 is > 100 µM (inactive) with HOP-92; > 100 µM (inactive) with RPMI-8226; 61.9 µM in the test with HCT-15; > 100 µM (inactive) in the test with SNB-19; > 100 µM (inactive) in the test with M14.

With `COc1ccc(Cc2ccc3nc(O)cc(C)c3c2)cc1S(=O)(=O)O`, the GI50 in the test on SF-539, in the test with UACC-62, in the test on OVCAR-3, in the test on SK-MEL-5, in the test on OVCAR-5 and with HL-60 was > 100 µM (inactive) throughout. Moreover, the GI50 in the test on NCI-H522, in the test with KM12, in the test with Malme-3M, with DU-145, with K562 and in the test with MDA-MB-231 was > 100 µM (inactive) each time. Besides, the GI50 in the test on HOP-92 is > 100 µM (inactive); in the test with RPMI-8226 it was > 100 µM (inactive); with HCT-15 it was more than 100 µM; in the test on NCI-H23, > 100 µM (inactive); in the test with SNB-19, > 100 µM (inactive); in the test with M14, > 100 µM (inactive).

For the compound `O=[N+]([O-])c1ccc(Cl)c(CNc2ncnc3c2ncn3C2CCCCO2)c1` (stereo unspecified), the GI50 in the test on SF-539 was 22.8 µM (inactive); with UACC-62 it was 22.8 µM (inactive); in the test with OVCAR-3, 34.3 µM (inactive); in the test on SK-MEL-5, 21.7 µM (inactive); in the test on OVCAR-5, > 100 µM (inactive); in the test on HL-60, 26.8 µM (inactive). Also, the GI50 is 32.8 µM (inactive) in the test with NCI-H522; 66.7 µM (inactive) with KM12; 64.9 µM (inactive) in the test on Malme-3M; 29.1 µM (inactive) in the test on DU-145; 31.4 µM (inactive) in the test with K562; 32.9 µM (inactive) with MDA-MB-231. Moreover, the GI50 was 42.3 µM (inactive) with HOP-92; 38.6 µM (inactive) in the test on RPMI-8226; 33.9 µM with HCT-15; 31.8 µM (inactive) with NCI-H23; 61.1 µM (inactive) in the test with SNB-19; 28.2 µM (inactive) in the test with M14.

Regarding `CCOc1ccc(N/C(=C(/C(Cl)=C(/Cl)N2CCCCC2)[N+](=O)[O-])n2nnc3ccccc32)cc1`, the GI50 was 21 µM (inactive) with HCC 2998; 16.4 µM (inactive) in the test on SF-539; 14.4 µM (inactive) in the test with UACC-62; 17.4 µM (inactive) in the test with OVCAR-3; 15.6 µM (inactive) in the test on SK-MEL-5; 16.7 µM (inactive) in the test on OVCAR-5. Also, the GI50 was 6.31 µM (inactive) in the test on NCI-H522; 14.2 µM (inactive) with KM12; 21.7 µM (inactive) in the test on Malme-3M; 19.2 µM (inactive) in the test with DU-145; 17.4 µM (inactive) in the test with K562; 20.9 µM (inactive) in the test on MDA-MB-231. The GI50 was 18.2 µM (inactive) with HOP-92; 14.7 µM (inactive) in the test with RPMI-8226; 11.1 µM in the test with HCT-15; 15.3 µM (inactive) in the test on NCI-H23; 19.9 µM (inactive) in the test on SNB-19; 14.9 µM (inactive) with M14.

With `COc1cc2c(cc1OC)CC(=O)c1cc(OC)c(OC)cc1/C=C\2`, the GI50 with SF-539 is > 12.5 µM (inactive); with UACC-62, > 12.5 µM (inactive); in the test with OVCAR-3 it was > 12.5 µM (inactive); in the test with SK-MEL-5, 7.74 µM (inactive); with OVCAR-5, > 12.5 µM (inactive); with HL-60 it was 2.24 µM (inactive). The GI50 is 9.44 µM (inactive) with NCI-H522; 4.55 µM (inactive) in the test on KM12; 2.93 µM (inactive) in the test on Malme-3M; > 12.5 µM (inactive) in the test on DU-145; 3.45 µM (inactive) with K562; > 12.5 µM (inactive) in the test on MDA-MB-231. Further, the GI50 in the test with HOP-92 is > 12.5 µM (inactive); in the test with RPMI-8226 it was > 12.5 µM (inactive); in the test on HCT-15 it was 5.85 µM; with NCI-H23 it was > 12.5 µM (inactive); in the test on SNB-19, > 12.5 µM (inactive); with M14, 9.57 µM (inactive).

Take `COc1cc(OC)nc(-n2c(N)c(C#N)c3ccc([N+](=O)[O-])cc3c2=O)n1`: the GI50 in the test on HCC 2998, in the test with SF-539, in the test on UACC-62, in the test on OVCAR-3, in the test with SK-MEL-5 and in the test with OVCAR-5 was > 100 µM (inactive) each time. Also, the GI50 in the test on HL-60 was > 100 µM (inactive); in the test on NCI-H522, 18.3 µM (inactive); in the test on KM12 it was > 100 µM (inactive); in the test on DU-145, > 100 µM (inactive); in the test with MDA-MB-231, > 100 µM (inactive); with HOP-92 it was > 100 µM (inactive). Also, the GI50 with RPMI-8226 was > 100 µM (inactive); with HCT-15, more than 100 µM; in the test with NCI-H23, > 100 µM (inactive); in the test on SNB-19, > 100 µM (inactive); in the test with M14 it was > 100 µM (inactive).

As for `O=[N+]([O-])/C=C/COCc1cc2c(cc1Br)OCO2`, the GI50 in the test with HCC 2998 is 16.7 µM (inactive); in the test on SF-539, 27.9 µM (inactive); in the test on UACC-62, 16.5 µM (inactive); with OVCAR-3, 16.4 µM (inactive); in the test with SK-MEL-5 it was 20.2 µM (inactive); with OVCAR-5 it was 16.7 µM (inactive). The GI50 in the test on NCI-H522 is 22 µM (inactive); in the test on KM12, 19 µM (inactive); with DU-145, 18.9 µM (inactive); in the test with K562, 58.2 µM (inactive); in the test with MDA-MB-231, 18.9 µM (inactive); with HOP-92 it was 23.2 µM (inactive). The GI50 in the test on RPMI-8226 was 39.5 µM (inactive); in the test with HCT-15 it was 18 µM; in the test with M14 it was 16.3 µM (inactive).

Take `S=P(C1CCCCC1)(C1CCCCC1)C(c1cccnc1)N1CCCC1` (stereo unspecified): the GI50 is 16.7 µM (inactive) in the test with SF-539; 22.5 µM (inactive) in the test on UACC-62; 92.5 µM (inactive) with OVCAR-3; 16.5 µM (inactive) in the test with SK-MEL-5; 36.1 µM (inactive) in the test on OVCAR-5; 18.1 µM (inactive) with HL-60. Besides, the GI50 was 20.6 µM (inactive) in the test with NCI-H522; 17.5 µM (inactive) with KM12; 23.2 µM (inactive) in the test on Malme-3M; 16.1 µM (inactive) in the test on DU-145; 21.2 µM (inactive) in the test with K562; 18.6 µM (inactive) with MDA-MB-231. Also, the GI50 with HOP-92 was 23.5 µM (inactive); with RPMI-8226, 15.5 µM (inactive); with HCT-15, 35.7 µM; in the test with NCI-H23 it was 18.7 µM (inactive); in the test on SNB-19, 83.2 µM (inactive); in the test with M14, 18.4 µM (inactive).

Turning to `Cc1nc2ccccc2c(=O)n1-c1n[nH]c2ccccc12`, the GI50 in the test with HCC 2998, in the test on SF-539, in the test on UACC-62, in the test on OVCAR-3, in the test on SK-MEL-5 and with OVCAR-5 was > 100 µM (inactive) each time. Moreover, the GI50 in the test on NCI-H522, with KM12, in the test on Malme-3M, with DU-145, in the test with K562 and with MDA-MB-231 was > 100 µM (inactive) each time. The GI50 in the test with HOP-92 was > 100 µM (inactive); with RPMI-8226, > 100 µM (inactive); in the test with HCT-15 it was more than 100 µM; with NCI-H23, > 100 µM (inactive); in the test with SNB-19, > 100 µM (inactive); in the test with M14 it was > 100 µM (inactive).

Regarding `NNC(=O)CC(=O)Nc1ccc(C(=O)O)cc1`, the GI50 in the test with SF-539, in the test on UACC-62, in the test with OVCAR-3, with SK-MEL-5, with OVCAR-5 and in the test with HL-60 was > 100 µM (inactive) each time. Further, the GI50 in the test with NCI-H522, in the test on KM12, in the test on Malme-3M, with DU-145, in the test on K562 and in the test with MDA-MB-231 was > 100 µM (inactive) each time. Further, the GI50 is > 100 µM (inactive) in the test with HOP-92; > 100 µM (inactive) in the test on RPMI-8226; more than 100 µM with HCT-15; > 100 µM (inactive) in the test on NCI-H23; > 100 µM (inactive) with SNB-19.

As for `COc1ccccc1N1C(=O)/C(=C\c2cc(OC)c(OC)c(OC)c2)S(=O)(=O)C1c1ccccc1` (stereo unspecified), the GI50 was 79.4 µM (inactive) in the test on HCC 2998; 25.5 µM (inactive) in the test with SF-539; 29.9 µM (inactive) in the test with UACC-62; 18.2 µM (inactive) in the test with OVCAR-3; 26.4 µM (inactive) in the test with SK-MEL-5; 17 µM (inactive) in the test with NCI-H522. The GI50 with KM12 was 28.6 µM (inactive); in the test on Malme-3M, 26.9 µM (inactive); in the test on DU-145 it was 62.1 µM (inactive); with K562 it was 28.6 µM (inactive); in the test with MDA-MB-231 it was 52.6 µM (inactive); in the test on HOP-92 it was 33.3 µM (inactive). Further, the GI50 in the test on RPMI-8226 is 20.5 µM (inactive); in the test with HCT-15 it was 29.5 µM; with NCI-H23, 33.9 µM (inactive); with SNB-19, 32.6 µM (inactive); with M14 it was 31 µM (inactive).

The values above are taken from ChEMBL document CHEMBL1201862, “PubChem BioAssay data set” (2004).
